Here are results for 22 compounds from patent US5214037A, “Thioalkylthio cephalosporin derivatives” (Shionogi & Co., Ltd., priority 1990, dated 1993).

Structures are written as SMILES. Values after ≈ are worked out from the molar mass of the structure shown. Structures can show the parent of a compound that is named as a salt.

The nature of data set [1]: Blood level at 15 minutes after oral administration to mice. The format is in vivo, mouse. To be noted: 40 mg/kg oral; for concentration at 0.25 h: mouse, blood. As for the experimental part:
The in vivo absorption rate of the compound I after oral administration was determined by administering a compound of the invention to mouse and measuring the blood level.
Blood level at 15 minutes after oral administration : A test compound (40 mg/kg) in a 5% suspension of arabic gum was administered to a mouse (weighing ca. 25 g) through an enteral tube. After 15 minutes, the blood in the heart cavity was taken and the concentration of the test compound was measured by the band culture method using Escherichia coli 7437.

The subject of a further data set is Escherichia coli EC-14. Kind of data set: Antibacterial activity in vitro, minimal inhibitory concentration (two-fold agar dilution). The format is cell-based. To be noted: EC14; Escherichia coli EC-14, agar dilution. As for the experimental part: (§1) Antibacterial activity in vitro : A solution of the test compound in 0.01N-aqueous sodium hydrogen carbonate was applied to an agar plate by two-fold dilution method and the minimal inhibitory concentrations against Gram-negative and Gram-positive bacteria were measured according to the standard method of the Japan Society of Chemotherapy.

The next data set relates to Proteus vulgaris CN-329. Described as above. It counts as cell-based. The note with it: CN329; Proteus vulgaris CN-329, agar dilution. As to the method:
as §1
In general terms: In agar dilution the substance is mixed into plates at graded concentrations.

The test system of data set [2] is Staphylococcus aureus Smith. Described as above. It counts as cell-based. As for the experimental part: as §1
In another data set the test system is Morgania morganii SR9. The description is as above. It counts as cell-based. As to the method: as §1
Data set [3] relates to Enterobacter cloacae SR233. The description is as above. It counts as cell-based. As for the experimental part: as §1
The next data set deals with Escherichia coli SR377. The data set is described as above. The format is cell-based. As to the method:
as §1

Another data set concerns Escherichia coli 7437. The data set is described as above. To be noted: Escherichia coli 7437, agar dilution. The format is cell-based. As for the experimental part:
as §1

The test system of data set [4] is Staphylococcus aureus 209P JC-1. The data set is described as above. It counts as cell-based. The note with it: Staphylococcus aureus 209P JC-1, agar dilution. As for the experimental part: as §1
The subject of data set [5] is Serratia marcescens SR1005. The data set is described as above. The format is cell-based. As for the experimental part:
as §1

In the next data set the test system is Proteus mirabilis PR4. Described as above. The format is cell-based. As for the experimental part:
as §1

For data set [6], the system named is Serratia marcescens A13880. The data set is described as above. It counts as cell-based. As for the experimental part:
as §1

In data set [7] the test system is Pseudomonas aeruginosa A25619. Described as above. It counts as cell-based. As to the method:
as §1

Turning to `O=C(O)C1=C(SCSc2c[nH]nn2)CS[C@@H]2[C@H](NC(=O)[C@H](O)c3ccccc3)C(=O)N12` [Example 7-3, 7β-D-mandelamido-3-(1,2,3-triazol-4-ylthiomethylthio)-3-cephem-4-carboxylic acid], in [1], the concentration at 0.25 h was 18500 ng/mL.
`Nc1nc(CC(=O)N[C@@H]2C(=O)N3C(C(=O)O)=C(SCSc4c[nH]nn4)CS[C@H]23)cs1` [Example 7-10, 7β-[2-(2-aminothiazol-4yl)acetamido]-3-(1,2,3-triazol-4-ylthiomethylthio)-3-cephem-4-carboxylic acid] had a concentration at 0.25 h in data set [1] of 17100 ng/mL. Besides, the MIC was 0.8 µg/mL (≈ 1.65 µM) with Escherichia coli EC-14, 0.8 µg/mL (≈ 1.65 µM) with Proteus vulgaris CN-329 and 0.1 µg/mL (≈ 0.206 µM) in data set [2].
In [1], `Nc1nc(/C(=N/O)C(=O)N[C@@H]2C(=O)N3C(C(=O)O)=C(SCSCc4c[nH]nn4)CS[C@H]23)cs1` [Example 6-1, 7β-[(Z)-2-(2-aminothiazol-4-yl) -2-hydroxyiminoacetamido]-3-(1,2,3-triazol-4-ylmethylthiomethylthio) -3-cephem-4-carboxylic acid] gave a concentration at 0.25 h of 12100 ng/mL. The MIC in the data set on Morgania morganii SR9 stood at 0.1 µg/mL (≈ 0.189 µM); in data set [3], 0.8 µg/mL (≈ 1.51 µM).
Consider `Nc1nc(/C(=N/O)C(=O)N[C@@H]2C(=O)N3C(C(=O)O)=C(SCSc4nncs4)CS[C@H]23)cs1` [Example 7-25, 7μ-[(Z)-2-(2-aminothiazol-4-yl)-2-hydroxyiminoacetamido]-3-(1,3,4-thiadiazol-2-ylthiomethylthio)-3-cephem-4-carboxylic acid], for which the MIC was 0.1 µg/mL (≈ 0.188 µM) against Morgania morganii SR9, 0.4 µg/mL (≈ 0.752 µM) in data set [3] and 0.4 µg/mL (≈ 0.752 µM) in the data set on Escherichia coli SR377.
In data set [1], `Nc1nc(/C(=N/O)C(=O)N[C@@H]2C(=O)N3C(C(=O)O)=C(SCSc4ccccn4)CS[C@H]23)cs1` [Example 7-30] gave a concentration at 0.25 h of 18700 ng/mL. This compound also returned a minimum inhibitory concentration (MIC) with Escherichia coli 7437 of 0.01 µg/mL (≈ 0.0191 µM).
Take `Cc1nnc(SCSC2=C(C(=O)O)N3C(=O)[C@@H](NC(=O)/C(=N\O)c4csc(N)n4)[C@H]3SC2)s1` [Example 7-26, 7μ-[(Z)-2-(2-aminothiazol-4-yl)-2-hydroxyiminoacetamido]-3-(2-methyl-1,3,4-thiadiazol-5-ylthiomethylthio)-3-cephem-4-carboxylic acid]: the MIC in the data set with Morgania morganii SR9 came out at 0.05 µg/mL (≈ 0.0916 µM); in data set [3], 0.8 µg/mL (≈ 1.47 µM); in the data set with Escherichia coli 7437, 0.02 µg/mL (≈ 0.0367 µM); with Escherichia coli SR377, 0.8 µg/mL (≈ 1.47 µM).
Take `Cn1ncc(SCSC2=C(C(=O)O)N3C(=O)[C@@H](NC(=O)/C(=N\O)c4csc(N)n4)[C@H]3SC2)n1` [Example 7-18, 7μ-[(Z)-2-(2-aminothiazol-4-yl)-2-hydroxyiminoacetamido]-3-(2-methyl-1,2,3-triazol-4-yl)thiomethylthio-3 cephem-4-carboxylic acid]: it took 0.02 µg/mL (≈ 0.0378 µM) to inhibit growth against Escherichia coli 7437 (MIC).
Turning to `Cn1nnnc1SCSC1=C(C(=O)O)N2C(=O)[C@@H](NC(=O)/C(=N\O)c3csc(N)n3)[C@H]2SC1` [Example 7-28, 7μ-[(Z)-2-(2-aminothiazol-4-yl)-2-hydroxyiminoacetyl]amino-3-(1-methyl-5-tetrazolyl) thiomethylthio-3-cephem-4-carboxylic acid], the MIC with Morgania morganii SR9 is 0.1 µg/mL (≈ 0.189 µM); in [3], 0.8 µg/mL (≈ 1.51 µM); against Escherichia coli 7437, 0.02 µg/mL (≈ 0.0378 µM); in the data set with Escherichia coli SR377 it was 0.4 µg/mL (≈ 0.755 µM).
Turning to `O=C(Cc1ccccc1)N[C@@H]1C(=O)N2C(C(=O)O)=C(SCSc3c[nH]nn3)CS[C@H]12` [Example 7-2, 7β-phenylacetylamino-3-(1,2,3-triazol-4-yl) thiomethylthio-3-cephem-4-carboxylic acid], the concentration at 0.25 h in data set [1] was 15000 ng/mL. Besides, the MIC in data set [2] and in data set [4] was 0.05 µg/mL (≈ 0.108 µM) in each case.
With `C=C(O/N=C(\C(=O)N[C@@H]1C(=O)N2C(C(=O)O)=C(SCSc3c[nH]nn3)CS[C@H]12)c1csc(N)n1)C(=O)O` [Example 7-15, 7μ-[(Z)-2-(2-aminothiazol-4-yl)-2-(1-carboxyvinyloxyimino)acetamido]-3-(1,2,3-triazol-4-ylthiomethylthio)-3-cephem-4-carboxylic acid], the MIC in data set [5] is 0.8 µg/mL (≈ 1.37 µM); in the data set with Proteus mirabilis PR4, less than 0.003 µg/mL.
With `O=C(CSC(F)F)N[C@@H]1C(=O)N2C(C(=O)O)=C(SCSc3c[nH]nn3)CS[C@H]12` [Example 7-1, 7β-difluoromethylthioacetamido-3-(1,2,3-triazol-4-ylthiomethylthio)-3-cephem-4-carboxylic acid], in data set [1], the concentration at 0.25 h was found to be 28000 ng/mL. Inhibition of growth in data set [2] (MIC) required 0.1 µg/mL (≈ 0.213 µM).
As to `Nc1nc(C(=O)C(=O)N[C@@H]2C(=O)N3C(C(=O)O)=C(SCSc4c[nH]nn4)CS[C@H]23)cs1` [Example 7-11, 7β-[2-(2-aminothiazol-4-yl)glyoxylylamido]-3-(1,2,3-triazol-4-ylthiomethylthio) -3-cephem-4-carboxylic acid], it took 0.4 µg/mL (≈ 0.801 µM) to inhibit growth against Escherichia coli EC-14 (MIC).
`Cn1nncc1SCSC1=C(C(=O)O)N2C(=O)[C@@H](NC(=O)/C(=N\O)c3csc(N)n3)[C@H]2SC1` [Example 7-19]: the MIC in [3] worked out at 0.4 µg/mL (≈ 0.757 µM); with Escherichia coli 7437 it was 0.02 µg/mL (≈ 0.0378 µM).
In data set [1], `CO/N=C(\C(=O)N[C@@H]1C(=O)N2C(C(=O)O)=C(SCSc3c[nH]nn3)CS[C@H]12)c1csc(N)n1` [Example 7-6, 7β-(Z)-2-(2-aminothiazol-4-yl)-2-methoxyiminoacetyl]amino-3-(1,2,3-triazol-4-yl) thiomethylthio-3-cephem-4-carboxylic acid sodium salt] gave a concentration at 0.25 h of 15000 ng/mL. Further, the MIC with Morgania morganii SR9 was 0.1 µg/mL; with Proteus vulgaris CN-329, 0.02 µg/mL.
Regarding `C=CCO/N=C(\C(=O)N[C@@H]1C(=O)N2C(C(=O)O)=C(SCSc3c[nH]nn3)CS[C@H]12)c1csc(N)n1` [Example 7-8, 7β-[(Z)-2-(2-aminothiazol-4-yl)-2-(2-propenyloxyimino)acetamido]-3-(1,2,3-triazol-4-ylthiomethylthio) -3-cephem-4-carboxylic acid], the MIC against Escherichia coli EC-14 was found to be 0.4 µg/mL (≈ 0.721 µM); in data set [3], 0.8 µg/mL (≈ 1.44 µM).
For `Nc1nc(/C(=N/O)C(=O)N[C@@H]2C(=O)N3C(C(=O)O)=C(SCSc4nn[nH]n4)CS[C@H]23)cs1` [Example 7-27, 7μ-[(Z) 2-(2-aminothiazol-4-yl)-2-hydroxyiminoacetyl]amino-3-(tetrazol-5-yl)thiomethylthio-3-cephem-4-carboxylic acid], the minimum inhibitory concentration (MIC) with Escherichia coli 7437 is 0.01 µg/mL (≈ 0.0194 µM).
On to `Nc1nc(/C(=N/O)C(=O)N[C@@H]2C(=O)N3C(C(=O)O)=C(SCSc4c[nH]nn4)CS[C@H]23)cs1` [Example 7-5], for which, in data set [1], the “blood level on oral administration” value was 29600 ng/mL and the concentration at 0.25 h stood at 29600 ng/mL. This compound also had an MIC in data set [3] of 0.8 µg/mL (≈ 1.55 µM). The compound also returned an MIC in the data set on Escherichia coli 7437 of 0.02 µg/mL (≈ 0.0389 µM).
`CC(C)(O/N=C(\C(=O)N[C@@H]1C(=O)N2C(C(=O)O)=C(SCSc3c[nH]nn3)CS[C@H]12)c1csc(N)n1)C(=O)O` [Example 7-16, 7μ-[(Z)-2-(2-aminothiazol-4-yl) -2-(1-carboxy-1-methylethoxyimino)acetamido]-3-(1,2,3-triazol-4-ylthiomethylthio)-3-cephem-4-carboxylic acid]: the MIC in data set [6] turned out to be 0.8 µg/mL (≈ 1.33 µM); in data set [7], 1.6 µg/mL (≈ 2.66 µM); in the data set on Proteus mirabilis PR4, 0.01 µg/mL (≈ 0.0166 µM).
As for `Nc1nc(/C(=N/OCC(=O)O)C(=O)N[C@@H]2C(=O)N3C(C(=O)O)=C(SCSc4c[nH]nn4)CS[C@H]23)cs1` [Example 7-13, 7μ-[(Z)-2-(2-aminothiazol-4-yl)-2-(sodiooxycarbonylmethoxyimino)acetamido]-3-(1,2,3-triazol-4-ylthiomethylthio) -3-cephem-4-carboxylic acid sodium salt], the MIC against Proteus vulgaris CN-329 and in the data set with Proteus mirabilis PR4 was 0.006 µg/mL in each case.
Take `C[C@H](O/N=C(\C(=O)N[C@@H]1C(=O)N2C(C(=O)O)=C(SCSc3c[nH]nn3)CS[C@H]12)c1csc(N)n1)C(=O)O` [Example 7-14, 7μ-(Z)-2-(2-aminothiazol-4-yl)-2-[(S)-1-sodiooxycarbonylethoxyimino]acetamido}-3-(1,2,3-triazol-4-ylthiomethylthio)-3-cephem-4-carboxylic acid sodium salt]: the values for the MIC with Escherichia coli EC-14, in the data set with Proteus vulgaris CN-329 and in the data set on Proteus mirabilis PR4 were 0.2 µg/mL, 0.006 µg/mL and 0.01 µg/mL, respectively.
Consider `Nc1nc(/C(=N/O)C(=O)N[C@@H]2C(=O)N3C(C(=O)O)=C(SCSc4cnns4)CS[C@H]23)cs1` [Example 7-24, 7μ-[(Z)-2-(2-aminothiazol-4-yl)-2-hydroxyiminoacetyl]amino-3-(1,2,3-thiadiazol-5-yl) thiomethylthio-3-cephem-4-carboxylic acid], for which the results for the MIC (in [3]; in the data set with Escherichia coli 7437; in the data set with Escherichia coli SR377) were 0.4 µg/mL (≈ 0.752 µM), 0.01 µg/mL (≈ 0.0188 µM) and 0.4 µg/mL (≈ 0.752 µM), respectively.
Take `Nc1nc(/C(=N/OC2CCCC2)C(=O)N[C@@H]2C(=O)N3C(C(=O)O)=C(SCSc4c[nH]nn4)CS[C@H]23)cs1` [Example 7-7, 7β-[(Z)-2-(2-aminothiazol-4-yl)-2-cyclopentyloxyiminoacetamido]-3-(1,2,3-triazol-4-ylthiomethylthio)-3-cephem-4-carboxylic acid]: the minimum inhibitory concentration (MIC) (against Escherichia coli EC-14; in data set [7]) was 0.8 µg/mL (≈ 1.37 µM) in each case.

Usually MIC stands for the lowest concentration that inhibits growth of the organism. The low end stands for inhibition by little substance, the high end for a need for much substance.
